Experimental data as given in patent publication US20150374712A1, “Combinations of Dopamine D2 Receptor Blockade With Norepinephrine Reuptake Inhibition and with Norepinephrine Alpha 2 Receptor Blockade” (priority 2007, published 2015).
Entries after “also recorded” stand apart in the source; their conditions may differ.

Columns and labels:
Syrian golden hamster [1] = assay: Chronic alcohol drinking in Syrian golden hamsters (free choice of alcohol and water); format: in vivo, Mesocricetus auratus
Procedure: (§1) All animals were given 24 hours/day access to 10-15% alcohol and water in two separate drinking bottles. Groups of animals (n=6-10/group) received daily injections of the specific drug or drug combination or vehicle for up to 4 weeks.

alcohol preferring P rat = assay: Initiation of alcohol drinking in alcohol-preferring P rats; format: in vivo
Procedure: as §1

Syrian golden hamster [2] = conditions: vs vehicle, Example 1 (prior art, FIG. 1, Green et al. 2004); cited from earlier work

SMILES: CN1CCN(C2=Nc3cc(Cl)ccc3Nc3ccccc32)CC1 [clozapine]
- duration of clozapine's effect on alcohol drinking (Syrian golden hamster [1]; Syrian golden hamster, chronic clozapine, Example 2, FIG. 2, unpublished data): at least 1 month

SMILES: O=C(CCCN1CCC(O)(c2ccc(Cl)cc2)CC1)c1ccc(F)cc1 [haloperidol]
- initiation of alcohol drinking (alcohol preferring P rat; low-dose haloperidol, Example 7, FIG. 7): minimal ability to blunt the initiation of alcohol drinking
- chronic alcohol drinking (Syrian golden hamster [2]): No dose of haloperidol tested had an effect on alcohol drinking; also recorded: very little effect on chronic alcohol drinking

SMILES: Cc1nc2n(c(=O)c1CCN1CCC(c3noc4cc(F)ccc34)CC1)CCCC2 [risperidone]
- alcohol drinking (chronic drinking) (Syrian golden hamster [1]; hamster, low dose of risperidone, Examples 9-10, FIGS. 9, 10): only a modest effect on alcohol drinking
- alcohol drinking (initiation of alcohol drinking) (alcohol preferring P rat; low dose of risperidone, Example 11, FIG. 11): only a modest effect on alcohol drinking
